Key:
[1] = target: T1, FGFR1 (Homo sapiens, UniProt P11362); assay: Kinase binding assay (kinase-tagged T7 phage, affinity beads, qPCR readout), FGFR1; conditions: FGFR binding data
T1 construct: made in house; host or cells: E. coli derived from BL21, infected with T7 phage
Summary of the method: (§1)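 Kd values derive from Hill-equation fits (slope −1, Levenberg-Marquardt) of qPCR-quantified kinase recovered from ligand-coated beads. Compounds ran as 11-point 3-fold series, final DMSO 0.9%, with 1 hour room-temperature binding.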

[2] = tested on: RT112/84 (Bladder Cancer), FGFR3-TACC3 fusion; assay: Cancer cell viability assay (Cell Titer-Glo), RT112/84; type: cell-based; conditions: Homo sapiens, RT112/84 cells, 72 hours
From the text: (§2) RT112/84, UM-UC-14, SNU-16 and KG-1 Cancer Cell Line Cell Viability Assays
(§3) To detect the change of intracellular ATP by Cell Titer-Glo@ and to evaluate the inhibitory effect of the compounds on cancer cell lines by determining the in vitro IC50 value of the compounds.
(§4) Cell Titer-Glo@ 2.0 Luminescent cell viability assay reagent was purchased from Promega (Madison, WI). RT112/84, SNU-16, and KG-1 cell lines were purchased from American Type Culture Collection (Manassas, VA). UM-UC-14 cell line was purchased from Sigma (St. Louis, MO). RT112/84, UM-UC-14, SNU-16, and KG-1 cells were cultured in RPMI1640 media supplemented with 10% fetal bovine serum. Cultures were maintained at 37° C. in a humidified atmosphere of 5% CO2 and 95% air.
(§5) Cell Viability Assay Procedure: Cells were plated in 96-well clear bottom/white plates (Corning #3903) at 10,000 cells/well in 100 μl of media, incubated overnight. The next day, test compound DMSO stock solutions were made at 10 mM and 2 μM final concentration. Compounds were then added to cells in a 9-dose, […] dilution series starting at 30 μM with an HP 300e Digital Dispenser (each dose was applied in triplicate). DMSO was backfilled to each well up to 301 nL total volume of test compound+DMSO, and a total of 301 nL DMSO was added to a control/no test compound well in triplicate. The cells in cell culture plates were incubated with the compounds at 37° C. and 5% CO2 for 72 hours. Then 50 μl of Cell Titer Glo 2.0 reagent was added to each well of the cell culture plates. The contents were covered from light and mixed on an orbital shaker at room temperature for 10 min. Luminescence was recorded by a Synergy H1 Microplate Reader (Biotek, Winooski, VT). Cells were assessed as a percentage of DMSO only treated control cells. Curves were plotted and IC50 values were calculated using the GraphPad Prism 8 program based on a sigmoidal dose-response equation (4 parameter).

[3] = target: T2, FGFR3 (V555M) (Homo sapiens, UniProt P22607, V555M); assay: Kinase binding assay (kinase-tagged T7 phage, affinity beads, qPCR readout), FGFR3 (V555M); conditions: FGFR binding data
T2 construct: made in house; host or cells: E. coli derived from BL21, infected with T7 phage
T2 sequence (P22607 23-806 V555M): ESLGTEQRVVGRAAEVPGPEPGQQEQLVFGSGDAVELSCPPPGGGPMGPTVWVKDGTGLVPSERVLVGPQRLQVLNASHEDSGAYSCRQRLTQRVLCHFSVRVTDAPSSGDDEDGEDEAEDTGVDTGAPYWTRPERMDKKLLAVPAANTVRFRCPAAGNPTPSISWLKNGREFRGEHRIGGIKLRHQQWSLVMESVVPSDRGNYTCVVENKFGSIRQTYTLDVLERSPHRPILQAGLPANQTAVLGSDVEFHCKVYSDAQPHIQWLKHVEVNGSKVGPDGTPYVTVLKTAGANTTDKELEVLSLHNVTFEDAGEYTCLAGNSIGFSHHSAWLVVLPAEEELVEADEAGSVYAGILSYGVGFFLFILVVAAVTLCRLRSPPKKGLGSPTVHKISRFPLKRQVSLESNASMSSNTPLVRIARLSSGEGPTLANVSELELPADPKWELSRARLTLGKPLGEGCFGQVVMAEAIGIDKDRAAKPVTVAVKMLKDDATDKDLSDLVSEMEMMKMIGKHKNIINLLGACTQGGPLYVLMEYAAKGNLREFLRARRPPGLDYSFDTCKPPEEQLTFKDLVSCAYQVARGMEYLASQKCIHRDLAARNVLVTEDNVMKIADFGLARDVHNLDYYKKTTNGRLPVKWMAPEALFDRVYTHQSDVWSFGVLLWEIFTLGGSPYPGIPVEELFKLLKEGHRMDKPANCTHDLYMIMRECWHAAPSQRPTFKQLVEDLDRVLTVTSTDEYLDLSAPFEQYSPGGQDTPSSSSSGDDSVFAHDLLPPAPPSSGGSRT
Summary of the method: as §1

[4] = target: T3, FGFR3 (Homo sapiens, UniProt P22607); assay: Kinase binding assay (kinase-tagged T7 phage, affinity beads, qPCR readout), FGFR3; conditions: FGFR binding data
T3 construct: made in house; host or cells: E. coli derived from BL21, infected with T7 phage
T3 sequence (P22607 23-806): as the sequence (P22607 23-806 V555M) above, with M533V counted along it
Summary of the method: as §1

[5] = target: T4, FGFR2 (Homo sapiens, UniProt P21802); assay: Kinase binding assay (kinase-tagged T7 phage, affinity beads, qPCR readout), FGFR2; conditions: FGFR binding data
T4 construct: made in house; host or cells: E. coli derived from BL21, infected with T7 phage
T4 sequence (P21802 22-821): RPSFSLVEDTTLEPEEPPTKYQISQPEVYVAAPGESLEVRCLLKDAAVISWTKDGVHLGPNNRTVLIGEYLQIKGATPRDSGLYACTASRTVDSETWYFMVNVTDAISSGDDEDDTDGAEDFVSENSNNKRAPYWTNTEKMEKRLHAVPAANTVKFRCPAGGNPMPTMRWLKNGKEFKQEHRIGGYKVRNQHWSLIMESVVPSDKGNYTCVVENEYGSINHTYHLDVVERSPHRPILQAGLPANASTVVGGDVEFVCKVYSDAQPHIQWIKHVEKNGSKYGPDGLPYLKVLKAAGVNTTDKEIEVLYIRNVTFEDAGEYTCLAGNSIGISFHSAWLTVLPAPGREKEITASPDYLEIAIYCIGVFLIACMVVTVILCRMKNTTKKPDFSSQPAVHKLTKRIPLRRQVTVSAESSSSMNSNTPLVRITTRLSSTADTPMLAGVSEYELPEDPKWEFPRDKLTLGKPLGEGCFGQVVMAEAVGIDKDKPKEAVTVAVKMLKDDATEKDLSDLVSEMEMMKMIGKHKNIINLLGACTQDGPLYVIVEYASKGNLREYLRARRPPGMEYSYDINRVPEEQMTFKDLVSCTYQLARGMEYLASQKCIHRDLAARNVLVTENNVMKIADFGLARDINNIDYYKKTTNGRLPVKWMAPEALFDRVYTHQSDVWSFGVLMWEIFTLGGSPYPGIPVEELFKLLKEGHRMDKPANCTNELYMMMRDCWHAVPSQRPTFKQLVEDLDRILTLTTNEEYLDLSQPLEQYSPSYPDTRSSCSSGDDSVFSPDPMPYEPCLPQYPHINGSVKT
Summary of the method: as §1

[6] = tested on: UM-UC-14 (Bladder Cancer), FGFR3(S249C); assay: Cancer cell viability assay (Cell Titer-Glo), UM-UC-14; type: cell-based; conditions: UMUC14, UM-UC-14 cells, 72 hours
From the text: as §2, §3, §4, §5

[7] = tested on: SNU-16 (Gastric Carcinoma), FGFR2 amplification; assay: Cancer cell viability assay (Cell Titer-Glo), SNU-16; type: cell-based; conditions: Homo sapiens, SNU-16 cells, 72 hours, read-out: SNU16 FGFR2 (IC50 nM)
From the text: as §2, §3, §4, §5

T1 sequence (P11362 22-822): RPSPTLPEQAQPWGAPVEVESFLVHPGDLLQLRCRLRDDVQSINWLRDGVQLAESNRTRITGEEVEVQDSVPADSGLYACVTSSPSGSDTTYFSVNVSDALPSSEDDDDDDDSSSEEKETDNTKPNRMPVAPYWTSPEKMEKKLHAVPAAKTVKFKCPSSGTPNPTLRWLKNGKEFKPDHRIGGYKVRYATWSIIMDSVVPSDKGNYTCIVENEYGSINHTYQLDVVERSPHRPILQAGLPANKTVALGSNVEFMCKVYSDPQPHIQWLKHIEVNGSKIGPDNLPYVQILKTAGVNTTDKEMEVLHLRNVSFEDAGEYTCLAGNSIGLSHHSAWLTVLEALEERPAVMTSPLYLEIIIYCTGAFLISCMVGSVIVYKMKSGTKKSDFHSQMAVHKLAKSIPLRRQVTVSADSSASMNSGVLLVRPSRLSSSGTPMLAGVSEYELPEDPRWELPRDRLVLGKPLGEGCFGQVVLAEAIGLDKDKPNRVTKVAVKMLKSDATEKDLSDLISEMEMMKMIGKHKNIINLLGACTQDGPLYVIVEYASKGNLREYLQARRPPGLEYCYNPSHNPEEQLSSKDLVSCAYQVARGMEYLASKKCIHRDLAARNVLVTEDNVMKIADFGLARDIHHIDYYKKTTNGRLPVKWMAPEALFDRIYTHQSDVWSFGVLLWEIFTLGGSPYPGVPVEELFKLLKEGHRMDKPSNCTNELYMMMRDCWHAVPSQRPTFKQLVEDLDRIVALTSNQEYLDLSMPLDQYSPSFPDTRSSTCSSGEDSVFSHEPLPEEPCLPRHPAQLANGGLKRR

SMILES | Kd [1] [nM] | IC50 [2] [nM] | Kd [3] [nM] | Kd [4] [nM] | Kd [5] [nM] | IC50 [6] [nM] | IC50 [7] [nM]
C=CC(=O)Nc1ccc2c(ccn2-c2nc(Nc3ccc(N4CCN(C)CC4)cc3)ncc2Cl)c1 [Example 1, N-[1-[5-chloro-2-[4-(4-methylpiperazin-1-yl)anilino]pyrimidin-4-yl]indol-5-yl]prop-2-enamide] | 0.1 to 100 | 100 to 250 | 0.1 to 100 | 0.1 to 100 | 0.1 to 100 |  | 
C=CC(=O)Nc1ccc2c(c1)c(C)cn2-c1nc(Nc2cnn(C)c2)ncc1C#N [Example 32, N-[1-[5-cyano-2-[(1-methylpyrazol-4-yl)amino]pyrimidin-4-yl]-3-methyl-indol-5-yl]prop-2-enamide] | 0.1 to 100 | 100 to 250 | 0.1 to 100 | 0.1 to 100 | 0.1 to 100 |  | 
C=CC(=O)Nc1ccc2c(c1)c(C)cn2-c1nc(Nc2ccc(N3CCOCC3)cc2)ncc1C#N [Example 38, N-[1-[5-cyano-2-(4-morpholinoanilino)pyrimidin-4-yl]-3-methyl-indol-5-yl]prop-2-enamide] | 0.1 to 100 | 0.1 to 100 | 0.1 to 100 | 0.1 to 100 | 0.1 to 100 |  | 
C=CC(=O)Nc1ccc2c(-c3nc(Nc4cnc5ccnn5c4)ncc3Cl)cn(C)c2c1 [Example 43, N-[3-[5-chloro-2-(pyrazolo[1,5-a]pyrimidin-6-ylamino)pyrimidin-4-yl]-1-methyl-indol-6-yl]prop-2-enamide] |  |  |  |  |  | 100 to 250 | 
C=CC(=O)Nc1ccc2c(-c3nc(Nc4ccc(N5CCN(C)CC5)cc4)ncc3Cl)cn(C)c2c1 [Example 50, N-[3-[5-chloro-2-[4-(4-methylpiperazin-1-yl)anilino]-pyrimidin-4-yl]-1-methyl-indol-6-yl]prop-2-enamide] |  | 0.1 to 100 |  |  |  |  | 
C=CC(=O)Nc1ccc2c(c1)c(C)nn2-c1nc(Nc2ccnn2C)ncc1F [Example 76, N-[1-[5-fluoro-2-[(2-methylpyrazol-3-yl)amino]pyrimidin-4-yl]-3-methyl-indazol-5-yl]prop-2-enamide] | > 1000 |  | > 1000 | 250 to 1000 | 250 to 1000 | 250 to 1000 | 
C=CC(=O)Nc1ccc2c(c1)c(C)nn2-c1nc(Nc2ccnn2C)ncc1C [Example 77, N-[3-methyl-1-[5-methyl-2-[(2-methylpyrazol-3-yl)amino]pyrimidin-4-yl]indazol-5-yl]prop-2-enamide] | > 1000 |  | 250 to 1000 | 250 to 1000 | > 1000 | > 1000 | 
C=CC(=O)Nc1cnc2c(c1)c(C)cn2-c1nc(Nc2ccnn2C)ncc1F [Example 80, N-[1-[5-fluoro-2-[(2-methylpyrazol-3-yl)amino]pyrimidin-4-yl]-3-methyl-pyrrolo[2,3-b]pyridin-5-yl]prop-2-enamide] | 0.1 to 100 |  | 0.1 to 100 | 0.1 to 100 | 0.1 to 100 | 0.1 to 100 | 
C=CC(=O)Nc1ccc2c(c1)c(C)cn2-c1nc(Nc2cnn(CCO)c2)ncc1Cl [Example 89, N-[1-[5-chloro-2-[[1-(2-hydroxyethyl)pyrazol-4-yl]amino]pyrimidin-4-yl]-3-methyl-indol-5-yl]prop-2-enamide] | 0.1 to 100 |  | 0.1 to 100 | 0.1 to 100 | 0.1 to 100 | 0.1 to 100 | 0.1 to 100
C=CC(=O)Nc1ccc2c(c1)c(C)cn2-c1nc(Nc2cnn(CCO)c2)ncc1F [Example 90, N-[1-[5-fluoro-2-[[1-(2-hydroxyethyl)pyrazol-4-yl]amino]pyrimidin-4-yl]-3-methyl-indol-5-yl]prop-2-enamide] | 0.1 to 100 |  | 0.1 to 100 | 0.1 to 100 | 0.1 to 100 | 0.1 to 100 | 0.1 to 100

From patent US20240190849A1, “AMINOPYRIMIDINE COMPOUNDS AND METHODS OF THEIR USE” (TYRA BIOSCIENCES, INC., priority 2021, published 2024)
